Experiment: Thymol Concentrations in Extractions (thymol released into liquid, HPLC)
Format: physicochemical
Conditions: neat thymol <250 microns, 2 g, 30 mins
Experimental: An aliquot of a sample was centrifuged at approximately 5000 rpm until visible settling occurred (approximately 30 minutes). […]. The contents were dissolved and diluted with a 0.1% AA:IPA (50:50) solution to volume. The solution was then filtered with Pall Acrodisc 0.45 micron nylon membrane. The thymol concentration was determined through “High Performance Liquid Chromatography (HPLC) analysis” according to the following conditions:
HPLC Equipment & Conditions
HPLC: Agilent 1100 HPLC system.
Column: Phenomenex Luna NH2 (5 μm, 250 mm×4.6 mm)-ambient
Detector: UV/Vis at 280 nm
Mobile Phases: (75:25) (IPA: 0.1% acetic acid)
Flow Rate: approximately 0.6 mL/min.
Injection Volume: approximately 15 μL

Question: With `Cc1ccc(C(C)C)c(O)c1` [thymol, Thymol] as the molecule, how does the “% Thymol (wt/wt) in extract solution” value (0 g citric acid, 100 mL deionized water) read?
Answer: The value was 0.084 % (wt/wt).

Question: And the “% Thymol (wt/wt) in extract solution” value (1.14 g citric acid, 97 mL deionized water)?
Answer: The value was 0.081 % (wt/wt).

— US9271487B2, “Protein stabilized antimicrobial composition formed by melt processing” (Kimberly-Clark Worldwide, Inc., priority 2010, dated 2016)
